Earlier results as cited in patent US20260034185A1, “POLYPODYIUM LEUCOTOMOS AND LARIX DECIDUA FOR USE IN THE PREVENTION OF DAMAGE FROM UVA, UVB, UVC AND/OR IR RAYS” (Unifarco S.p.A., priority 2022, published 2026).

Target: T1, caspase-1 (Homo sapiens, UniProt P29466)
T1 construct: literature Promega G9951
T1 sequence (P29466 120-297 limits assumed): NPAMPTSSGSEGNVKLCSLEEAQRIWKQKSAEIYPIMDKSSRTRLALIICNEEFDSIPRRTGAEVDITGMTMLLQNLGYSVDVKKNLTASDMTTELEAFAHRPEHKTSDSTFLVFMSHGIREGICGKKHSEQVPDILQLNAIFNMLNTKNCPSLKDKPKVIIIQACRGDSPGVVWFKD
T1 sequence (P29466 317-404 limits assumed): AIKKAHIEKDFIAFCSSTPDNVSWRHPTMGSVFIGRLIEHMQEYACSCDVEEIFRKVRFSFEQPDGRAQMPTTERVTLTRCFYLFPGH
Details: inhibitor included in the Caspase-Glo 1 kit; does not substantially inhibit cross-reactive caspases

Ac-YVAD-CHO
inhibition of caspase-1 activity: 99%
